# In patent publication US20230124862A1, “BISMUTH THIOL COMPOUNDS AND COMPOSITIONS AND METHODS OF TREATING MICROBIAL CO-INFECTIONS” (Microbion Corporation, priority 2020, published 2023):
# Several values for one entry are separate records, joined by “and”; a condition that tells them apart may be missing. Equal values may be shown once. Read-outs that look alike come from different tables or passages of the source.
# Key:
# [1] = tested on: M. abscessus complex; test: MIC testing of CF isolates; assay type: cell-based, Mycobacterium abscessus
# [2] = tested on: S. aureus; settings: S. aureus MMX 101 (ATCC 29213); cited from earlier work
# [3] = tested on: Enterobacteriaceae; settings: E. coli MMX 102 (ATCC 25922); CLSI QC ranges shown in parenthesis; cited from earlier work
# [4] = tested on: S. aureus; test: Broth microdilution MIC (Example 11); assay type: cell-based, Staphylococcus aureus; settings: Staphylococcus aureus, ATCC 29213 / MSSA, S. aureus MMX 101 (ATCC 29213); QC; MSSA; read-out: MIC
# [5] = tested on: Enterococcus spp.; test: Broth microdilution MIC (Example 11); assay type: cell-based, E. faecalis, E. faecium; settings: Lev^R Cip^R Ery^R, read-out: MIC
# [6] = tested on: P. aeruginosa and A. baumannii; settings: P. aeruginosa MMX 103 (ATCC 27853); CLSI QC ranges shown in parenthesis; cited from earlier work
# [7] = tested on: Gram-positive aerobic bacteria (S. aureus, MRSA, CA-MRSA); test: MIC90 against 150 clinical isolates of Gram-positive aerobic bacteria; assay type: cell-based; settings: S. aureus (50 isolates)
# [8] = tested on: beta-hemolytic streptococci; test: Broth microdilution MIC (Example 11); assay type: cell-based, S. pyogenes, S. agalactiae; settings: ERY^R CC^R, read-out: MIC
# [9] = tested on: vancomycin-intermediate Staphylococcus aureus (VISA); test: Broth microdilution MIC (Example 12); assay type: cell-based; settings: Staphylococcus aureus, NRS 13 / VISA, all isolates except NRS 13; read-out: MIC values
# [10] = assay type: physicochemical
# [11] = tested on: Anaerobes (Bacteroides fragilis, Clostridium difficile); test: Agar dilution MIC (Example 11); assay type: cell-based; settings: read-out: MIC
# Method: The susceptibility of anaerobic bacteria was determined by agar dilution using Brucella Agar (BD/BBL; Lot No. 5237692) supplemented with 5 μg/mL hemin (Sigma, St. Louis, Mo.; Lot No. 108K1088), 1 μg/mL Vitamin K1 and 5% (v/v) laked sheep blood (Cleveland Scientific, Bath, Ohio; Lot No. 322799).
# Agar Dilution MIC Testing (Anaerobic Bacteria and Gonococci): MIC values for anaerobic bacteria were determined using a reference agar dilution method as described by CLSI (6). Organisms were grown at 35° C. in the Bactron II Anaerobic Chamber (Shel Lab, Cornelius, Oreg.) for approximately 48 hr prior to the assay. Drug dilutions and drug-supplemented agar plates were prepared manually per CLSI (6). The plates were allowed to stand at room temperature for 1 hr to allow the agar surface to dry and pre-reduced for approximately 1 hr in the anaerobe chamber prior to inoculation. Each isolate was suspended to the equivalent of a 0.5 McFarland standard in Brucella broth using a turbidity meter (Dade Behring MicroScan, West Sacramento, Calif.). Each bacterial cell suspension was then diluted 1:10 in Brucella broth and transferred to wells in a stainless steel replicator block which was used to inoculate the test plates. The prongs on the replicator deliver approximately 1-2 μl of inoculum to an agar surface. The resulting inoculum spots contained approximately 1×10^5 CFU/spot. After the inoculum dried, the inoculated drug-supplemented agar plates and no drug growth control plates were incubated at 35° C. for 42-48 hr in the anaerobe chamber. The MIC was read per CLSI guidelines (6).
# [12] = tested on: Pseudomonas aeruginosa strain PA01; test: Bacterial killing curves with and without CF patient sputum; assay type: cell-based; settings: tobramycin 1 μg/mL, 10% CF sputum, most time points
# [13] = tested on: P. aeruginosa; test: Checkerboard FIC/FICI assay; assay type: cell-based, Pseudomonas aeruginosa; settings: Tobramycin in combination with BisEDT
# [14] = tested on: Burkholderia cepacia complex; test: Checkerboard FIC/FICI assay; assay type: cell-based, Burkholderia spp.
# [15] = non-reversing and total heat flow
# [16] = P. aeruginosa 6322, one value per panel row C-G
# [17] = P. aeruginosa 6977, by checkerboard
# [18] = P. aeruginosa 7745, by checkerboard
# [19] = P. aeruginosa 9108, by checkerboard
# [20] = B. cepacia 1793, Tobramycin in combination with BisEDT, by checkerboard
smiles,measurement,setting,value
CC[C@H]1OC(=O)[C@H](C)[C@@H](O[C@H]2C[C@@](C)(OC)[C@@H](O)[C@H](C)O2)[C@H](C)[C@@H](O[C@@H]2O[C@H](C)C[C@H](N(C)C)[C@H]2O)[C@](C)(OC)C[C@@H](C)C(=O)[C@H](C)[C@@H](O)[C@]1(C)O [CLR],MIC,[1]; M. abscessus/massiliense complex (AMT0068-40),1 µg/mL
same,MIC,[1]; M. abscessus/massiliense complex (AMT0119-7),1 µg/mL
same,MIC,"[1]; M. abscessus/massiliense complex (AMT0493-2), AMK R",2 µg/mL
same,MIC,[1]; M. abscessus/massiliense complex (AMT01130-8),1 µg/mL
same,MIC,[1]; M. abscessus/massiliense complex (AMT1539),2 µg/mL
same,MIC,"[1]; M. abscessus/massiliense complex (ATCL119977), Macrolide R (inducible)",>32^1 ^ μg/mL
CC(C)(O/N=C(\C(=O)N[C@@H]1C(=O)N2C(C(=O)[O-])=C(C[n+]3ccccc3)CS[C@H]12)c1csc(N)n1)C(=O)O [Ceftazidime],CLSI QC range of MIC,[2],(4-16) μg/mL
same,"MIC, CLSI QC range",[3],(0.06-0.5) μg/mL
same,MIC,[4],8 µg/mL
same,MIC,"[5]; E. faecalis MMX 8960, VRE",> 32 µg/mL
same,MIC,"[5]; E. faecalis MMX 8961, VRE",> 32 µg/mL
same,MIC,"[5]; E. faecalis MMX 8962, VRE",> 32 µg/mL
same,MIC,"[5]; E. faecium MMX 485, VRE vanA",> 32 µg/mL
same,MIC,"[5]; E. faecium MMX 752, VRE vanA",> 32 µg/mL
same,"MIC, CLSI QC range",[6],(1-4) μg/mL
C[C@@H](O)[C@H]1C(=O)N2C(C(=O)O)=C(SCCN=CN)C[C@H]12 [IPM],MIC90,[7]; CA-MRSA,2 µg/mL
same,MIC90,[7]; MRSA,>8 µg/mL
same,MIC90,[7]; MSSA,0.03 µg/mL
"C[C@H]1COc2c(N3CCN(C)CC3)c(F)cc3c(=O)c(C(=O)O)cn1c23 [Levofloxacin, reference compound]",MIC,"[8]; Streptococcus agalactiae, S. agalactiae MMX 3741",0.25 µg/mL
same,MIC,"[8]; Streptococcus pyogenes, S. pyogenes MMX 5091",0.5 µg/mL
same,MIC,[9],> 4 µg/mL
same,MIC,[4],0.12 µg/mL
same,MIC,"[5]; E. faecalis MMX 8960, VRE",32 µg/mL
same,MIC,"[5]; E. faecalis MMX 8961, VRE",64 µg/mL
same,MIC,"[5]; E. faecalis MMX 8962, VRE",64 µg/mL
same,MIC,"[5]; E. faecium MMX 485, VRE vanA",> 64 µg/mL
same,MIC,"[5]; E. faecium MMX 752, VRE vanA",> 64 µg/mL
Cc1onc(-c2ccccc2)c1C(=O)N[C@@H]1C(=O)N2[C@@H]1SC(C)(C)[C@@H]2C(=O)O [Oxacillin],CLSI QC range of MIC,[2],(0.12-0.25) μg/mL
C1C[S][Bi]([S]CC[S][Bi]2[S]CC[S]2)[S]1 [X-ray amorphous BisEDT],"Temperature cycling DSC: broad, weak endotherm (approximate peak max)","[10]; Cycle 1, heat to 85° C.","Broad, weak endotherm at 75 °C"
same,Temperature cycling DSC: small endotherm (peak max),"[10]; Cycle 4, heat to 130° C., 10° C./min",Small endotherm at 112 °C (peak max)
same,Temperature cycling DSC: sharp exotherm (peak max),"[10]; Cycle 7, heat to 200° C., 10° C./min",Sharp exotherm at 160 °C (peak max)
same,DSC: broad endotherm (peak max),[10]; conventional DSC,Broad endotherm at 64 °C (peak max)
same,DSC: sharp strong exotherm (peak max),[10]; conventional DSC,Sharp strong exotherm at 168 °C
same,DSC: small endotherm (peak max),[10]; conventional DSC,Small endotherm at 112 °C (peak max)
same,DSC: small exotherm (peak max),[10]; conventional DSC,Small exotherm at 145 °C (peak max)
same,Modulated DSC: broad weak endotherm (peak max),[10]; [15],Broad weak endotherm at 47 °C
same,Modulated DSC: heat flow fluctuations,[10]; [15],Heat flow fluctuations above 140 °C
same,Modulated DSC: small endotherm (peak max),[10]; [15],Small endotherm at 104 °C (peak max)
same,Modulated DSC: small exotherm (peak max),[10]; [15],Small exotherm at 134 °C (peak max)
same,Modulated DSC: Tg (midpoint of step change),[10]; reversing heat flow,Tg at 101 °C (midpoint of step change)
same,Modulated DSC: ΔCp,"[10]; reversing heat flow, at Tg",(ΔCp 0.3 J/(g*K)
"CCC[C@@H]1C[C@@H](C(=O)N[C@@H]([C@H]2O[C@H](SC)[C@H](O)[C@@H](O)[C@H]2O)[C@H](C)Cl)N(C)C1 [clindamycin, reference compound]",MIC,[9],> 4 µg/mL
same,MIC,"[11]; Bacteroides fragilis, ATCC25285, B. fragilis MMX 123 (ATCC 25285), QC",1 µg/mL
same,MIC,"[11]; C. difficile MMX 4381 (ATCC 700057), QC, CC^1",4 µg/mL
same,MIC,"[11]; C. difficile MMX 5680 (NCTC 13336), ribotype 027, CC^1 MET^R",4 µg/mL
same,MIC,"[11]; C. difficile MMX 5681 (NCTC 13307), ribotype 012, CC^R",> 64 µg/mL
same,MIC,"[11]; C. difficile MMX 8272, ribotype 255, CC^1",4 µg/mL
same,MIC,"[11]; C. difficile MMX 8279, ribotype 005, CC^R",> 64 µg/mL
same,MIC,"[11]; C. difficile MMX 8281, ribotype 010, CC^R",> 64 µg/mL
same,MIC,[4],0.12 µg/mL
same,MIC,"[5]; E. faecalis MMX 8960, VRE",> 32 µg/mL
same,MIC,"[5]; E. faecalis MMX 8961, VRE",> 32 µg/mL
same,MIC,"[5]; E. faecalis MMX 8962, VRE",> 32 µg/mL
same,MIC,"[5]; E. faecium MMX 485, VRE vanA",> 32 µg/mL
same,MIC,"[5]; E. faecium MMX 752, VRE vanA",> 32 µg/mL
"NC[C@H]1O[C@H](O[C@H]2[C@H](O)[C@@H](O[C@H]3O[C@H](CO)[C@@H](O)[C@H](N)[C@H]3O)[C@H](N)C[C@@H]2N)[C@H](N)C[C@@H]1O [tobramycin, Tobramycin, reference compound]",CFU higher in cultures with sputum vs without,[12],0.5-1 log CFU/mL
same,FICB,[13]; [16],1
same,MICB,[13]; [16],128 µg/mL
same,FICB,[13]; [17],2
same,MICB,[13]; [17],256 µg/mL
same,FICB,[13]; [18],1
same,MICB,[13]; [18],0.5 µg/mL
same,FICB,[13]; [19],1
same,MICB,[13]; [19],0.0005 µg/mL
same,FICB,"[14]; B. cenocepacia 548, FIC of Tobramycin (Drug B) in combination with BisEDT",0.25 and 0.5
same,MICB,"[14]; B. cenocepacia 548, MIC of Tobramycin (Drug B) in combination with BisEDT",8 µg/mL and 16 µg/mL
same,FICB,"[14]; B. cenocepacia 813, FIC of Tobramycin (Drug B) in combination with BisEDT",0.5 and 1
same,FICB,[14]; [20],0.5 and 1
same,MICB,[14]; [20],8 µg/mL and 16 µg/mL
same,FICB,"[14]; B. multivorans 1795, FIC of Tobramycin (Drug B) in combination with BisEDT",1
same,MICB,"[14]; B. multivorans 1795, MIC of Tobramycin (Drug B) in combination with BisEDT",>256 µg/mL
